These results are taken from ChEMBL document CHEMBL4118022, “Unguiculin A and Ptilomycalins E-H, Antimalarial Guanidine Alkaloids from the Marine Sponge Monanchora unguiculata” (J Nat Prod, 2017).

One series relates to Plasmodium falciparum. The series can be described thus: Antiplasmodial activity against Plasmodium falciparum 3D7 erythrocytic stage assessed as reduction in parasitic LDH activity measured after 48 hrs by colorimetric method. The class given is functional, organism-based. As to conditions: 3D7, 48 h.
Series [1] in a line: Selectivity index, ratio of IC50 for human KB cells to IC50 for Plasmodium falciparum 3D7 erythrocytic stage. The class given is toxicity. The note with it: KB cells versus Plasmodium falciparum 3D7 erythrocytic stage, read-out: Ratio IC50.
The subject of a further series is KB. In words: Cytotoxicity against human KB cells after 72 hrs by CellTiter96 AQueous one solution assay. The class given is cell-based.

SMILES strings stand for the structures.

Take `CC[C@@H]1C=CCC[C@]2(C[C@H]3CC[C@H]4[C@@H](C(=O)OCCCCCCCCCCCCCCCC(=O)N(CCCCNC(=N)N)CCCNC=O)[C@@]5(CCC[C@H](C)O5)NC(=N2)N34)O1`: the IC50 – broadly, the concentration that inhibits the measured activity by half – in the series on Plasmodium falciparum came to 0.23 µM; in the series on KB, 1.61 µM. Moreover, in series [1], the selectivity ratio is 7.

As for `CC[C@@H]1C=CCC[C@]2(C[C@H]3CC[C@H]4[C@@H](C(=O)OCCCCCCCCCCCCCCCC5=NCCCN5CC(O)CCN)[C@@]5(CCC[C@H](C)O5)NC(=N2)N34)O1` (some centres undefined), the 50% inhibitory concentration (IC50) was 0.24 µM in the series on Plasmodium falciparum and 1.17 µM with KB. In addition, in series [1], the selectivity ratio was 4.9.

As for `CC[C@@H]1C=CCC[C@]2(C[C@H]3CC[C@H]4[C@@H](C(=O)OCCCCCCCCCCCCCCCC(=O)N(CCCCNC(=N)N)CCCNC(=N)N)[C@@]5(CCC[C@H](C)O5)NC(=N2)N34)O1`, the half-maximal inhibitory concentration (IC50) came out at 0.35 µM in the series with Plasmodium falciparum and 0.85 µM with KB. Further, the selectivity ratio in series [1] was 2.4.

Turning to `CCCCCCCCCCCCCCCC(=O)N(CCCCNC(=N)N)CCCNC(=N)N`, the concentration for half-maximal inhibition (IC50) with Plasmodium falciparum worked out at 12.9 µM; in the series on KB, 7.66 µM. Moreover, in series [1], the selectivity ratio was determined as 0.6.

In the series on KB, `CC[C@@H]1C=CCC[C@]2(C[C@H]3CC[C@H]4[C@@H](C(=O)OCCCCCCCCCCCCCCCC(=O)O)[C@@]5(CCC[C@H](C)O5)NC(=N2)N34)O1` returned a concentration for half-maximal inhibition (IC50) of 8.8 µM.

For the compound `C[C@@H]1CC[C@H]2[C@@H](C)C(=O)O[C@@H]3O[C@@]4(C)CC[C@@H]1[C@]32OO4` [ARTEMISININ], the concentration for half-maximal inhibition (IC50) with Plasmodium falciparum was determined as 0.004 µM.
